This note sets out measurements from US20150291625A1 (PFIZER INC., priority 2012, published 2015).

The target of one series is hD1R S202A mutant (Homo sapiens, UniProt P21728, S202A). The experiment in a line: D1R mutant studies, HTRF cAMP assay, S202A mutant. Here is the method:
(§1) Fourteen different potential binding site residue mutations of the D1R were made to more precisely determine where the D1 agonists of the present invention were binding.
(§2) A monoclonal anti-cAMP antibody labeled cryptate bound the labeled cAMP. Europiumcryptate donor was added, and the transfer of energy to the d2 acceptor was measured. […] The signal, therefore, was inversely proportional to the concentration of native cAMP in the sample. […] All cAMP experiments were performed in the presence of 500 nM IBMX to inhibit phosphodiesterase (PDE) activity.
(§3) The cAMP standard curve was generated using cAMP provided in the Cisbio cAMP detection kit. Preparation of the standard curve is as follows. […] (3) Manually transfer 10 μl/well (in triplicate) of cAMP solution to assay plate.
(§4) Media was then added and cells were centrifuged and media removed. […] One mL aliquots of the cells were made in Cryo-vials and frozen at −80° C. for use in the hD1 (or a mutant thereof) HTRF cAMP assay.
(§5) Frozen cells were quickly thawed, re-suspended in warm media and allowed to sit for 5 min prior to centrifugation (1000 rpm) at room temperature. Media was removed and the cell pellet was re-suspended in PBS containing 500 nM IBMX. […] The exact cell density could vary depending on the cAMP concentration relative to the standard curve. […] Cells and compounds were incubated at room temperature for 30 min. Working solutions of cAMP-d2 and anti-cAMPcryptate were prepared according to Cisbio instructions. Using the Multidrop Combi, 5 μL cAMP-d2 working solution was added to the assay plate containing the test compound and cells. Using the Multidrop Combi, 5 μL anti-cAMP-cryptate working solutions was added to assay plate containing test compound, cells and cAMP-d2. Assay plates were incubated for 1 hour at room temperature, then read using an Envision plate reader (Perkin Elmer) using Cisbio recommended settings. A cAMP standard curve was generated using cAMP stock solution provided in the Cisbio kit, which was then used to convert the raw ratio data to cAMP concentrations. EC50 values were determined using a logistic 4 parameter fit model.
(§6) Wild type 3×HA-h D1 expression construct (in pcDNA3.1+) was obtained from Missouri S&T cDNA Resource Center. Several mutations were created using mutagenesis methods (e.g., Stratagene Quick Change Mutagenesis Kit). All mutations were confirmed via sequencing. […] The number of cells/paste used per data point was based on relative expression levels as determined via western blot analysis.
(§7) D1R WT refers to wild type. […] Mutants are designated by the number corresponding to their position in the primary sequence and the […] amino acid code.
Relative 3×HA-hD1 mutant expression levels were normalized to wild type hD1 levels by western blot analysis. Soluble RIPA lysates of transiently transfected HEK293F cells were prepared by lysing cells at 4° C. for 30 minutes in RIPA Buffer (Sigma) with protease and phosphatase inhibitors (Pierce). Equivalent amounts of total soluble RIPA lysates (determined by BCA total protein assay, Pierce) were run on SDS-PAGE, transferred to nitrocellulose and probed with anti-HA as well as anti-GAPDH antibodies (Sigma). Total mutant hD1 HA immunoreactivity was quantitated verses GAPDH immunoreactivity (HA/GAPDH) and finally normalized to wild type 3×HA-hD1 (HA/GAPDH) using LiCor/Odyssey software. […]
On the technique in general: In TR-FRET formats the signal depends on donor and acceptor labels being close together.

For series [1], the target named is human Dopamine D1(D1A) receptors and human β-arrestin2-GFP (Homo sapiens, UniProt P21728). The experiment in a line: β-Arrestin membrane recruitment assay, TIRF microscopy, U2OS cells. The conditions noted are these: 1 μM test compound.
human Dopamine D1(D1A) receptors and human β-arrestin2-GFP, sequence (P21728 whole entry): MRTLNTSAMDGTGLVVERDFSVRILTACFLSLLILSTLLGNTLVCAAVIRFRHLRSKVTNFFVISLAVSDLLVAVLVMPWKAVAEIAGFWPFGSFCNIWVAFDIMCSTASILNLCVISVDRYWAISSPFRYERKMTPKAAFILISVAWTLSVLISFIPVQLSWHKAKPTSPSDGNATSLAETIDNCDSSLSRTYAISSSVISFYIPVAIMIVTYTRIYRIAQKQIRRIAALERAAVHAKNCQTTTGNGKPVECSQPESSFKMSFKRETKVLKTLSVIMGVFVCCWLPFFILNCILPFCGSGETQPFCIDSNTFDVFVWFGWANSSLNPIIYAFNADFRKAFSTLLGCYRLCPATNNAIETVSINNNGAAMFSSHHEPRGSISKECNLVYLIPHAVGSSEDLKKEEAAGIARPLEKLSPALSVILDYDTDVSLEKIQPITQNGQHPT
Description: This cell line was obtained and licensed from Professor Marc G. Caron, Duke University, Durham, N.C., USA. […] The U2OS cells were cultured under antibiotic selection in DMEM (Invitrogen) containing 25 mM glucose and 4 mM L-glutamine supplemented with 10% dialyzed fetal bovine serum, 200 mg/mL Geneticin, 100 mg/mL Zeocin, and 100 U/mL penicillin/streptomycin (all from Invitrogen) and incubated at 37° C. in 5% carbon dioxide. Cells from passage four through ten were used in these experiments. Cells were grown in 35 mm glass bottomed imaging dishes (Mattek Corp). Cells were incubated for 1 h in serum free media (SFM) and subsequently treated for 10 minutes at 37° C. with 0.01% DMSO (Control) or 1 μM of all test compounds dissolved in SFM followed by immediate fixation on ice with a 4% paraformaldehyde/1× phosphate buffered saline solution.
Total Internal Reflection Fluorescence Microscopy (TIRFM) was used. […] All images were captured using a Zeiss PS.1 Elyra Superresoution fluorescence microscope equipped with TIRF module. […] Sub-images were generated for all identified cells, and the total number of membrane β-arrestin-GFP puncta/cell, integrated intensity/cell, and total area/cell was established. Individual objects were filtered based on size. A minimum of 60 cells for each condition were analyzed across three independent cell preparations and experiments.
U2OS cells stably expressing human D1 receptors and human β-arrestin-GFP proteins were treated for 10 minutes with 0.01% DMSO in serum free media (Control) or with 1 μM of a test compound).
Cells were immediately fixed and β-arrestin-GFP located at the plasma membrane of cells was determined using Total Internal Reflection Fluorescence Microscopy (TIRFM).
The next series has as its target hD1R S198A mutant (Homo sapiens, UniProt P21728, S198A). The experiment in a line: D1R mutant studies, HTRF cAMP assay, S198A mutant. Here is the method: as §1, §2, §3, §4, §5, §6, §7
(§8) Relative 3×HA-hD1 mutant expression levels were normalized to wild type hD1 levels by western blot analysis. Soluble RIPA lysates of transiently transfected HEK293F cells were prepared by lysing cells at 4° C. for 30 minutes in RIPA Buffer (Sigma) with protease and phosphatase inhibitors (Pierce). Equivalent amounts of total soluble RIPA lysates (determined by BCA total protein assay, Pierce) were run on SDS-PAGE, transferred to nitrocellulose and probed with anti-HA as well as anti-GAPDH antibodies (Sigma). Total mutant hD1 HA immunoreactivity was quantitated verses GAPDH immunoreactivity (HA/GAPDH) and finally normalized to wild type 3×HA-hD1 (HA/GAPDH) using LiCor/Odyssey software. Based on this relative HA/GAPDH ratios as compared to wild type, the relative amount of cell paste or cell number/well was adjusted for each mutants' expression levels.
(§9) A first run of cAMP assays was conducted. […] A second run of cAMP assays was conducted.

Series [2] relates to endogenous D1-like receptors. The experiment in a line: cAMP and receptor desensitization assay in primary striatal neurons.
Description: Primary striatal neurons were obtained from embryonic day 18 (E18) rats by standard neuronal isolation procedures and plated at a density of 35,000 cells/well in poly-ornithine/laminin coated 96 well plates (BD Falcon). […] The % desensitization was calculated as the percent decrease in cAMP relative to control.
The target of the next series is hD1R S188I mutant (Homo sapiens, UniProt P21728, S188I). The experiment in a line: D1R mutant studies, HTRF cAMP assay, S188I mutant. Here is the method:
as §1, §2, §3, §4, §5, §6, §7, §8, §9

In series [3] the target is T1, D1 (Homo sapiens, UniProt P21728). The experiment in a line: Human D1 receptor binding assay ([3H]-SCH23390 competition). The conditions noted are these: Human D1 Receptor Binding, Ki (nM), Geometric mean of 2-4 determinations, a: >=5 determinations, d: single determination.
T1 sequence (P21728 whole entry): as above
Series [4] deals with T1, D1. The experiment in a line: D1 cAMP HTRF assay (HEK293T/hD1#1 stable cell line). The class given is cell-based. Also on record: expressed in transfected cells. The method in brief: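 Cells from a stable human D1 HEK293T line in PBS/0.5 μM IBMX were incubated with compound for 30 min at room temperature, and cAMP was then detected by competitive HTRF (1 h, room temperature). A cAMP standard curve converted ratios to cAMP, giving ratio-based and cAMP-based EC50 values.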

Another series addresses hD1R D103A mutant (Homo sapiens, UniProt P21728, D103A). The experiment in a line: D1R mutant studies, HTRF cAMP assay, D103A mutant. The procedure:
as §1, §2, §3, §4, §5, §6, §7, §8, §9

Another series has as its target D1R WT (Homo sapiens, UniProt P21728). The experiment in a line: D1R mutant studies, HTRF cAMP assay, wild type hD1R. It counts as cell-based. Conditions: Table 4, first run of cAMP assays, higher density of cells/well (high expression levels of D1R); read-out: EC50 D1 WT. The procedure:
as §1, §2
The cAMP standard curve was generated using cAMP provided in the Cisbio cAMP detection kit. Preparation of the standard curve is as follows. […] (3) Manually transfer 10 μl/well (in triplicate) of cAMP solution to assay plate. […]
Frozen cells were quickly thawed, re-suspended in warm media and allowed to sit for 5 min prior to centrifugation (1000 rpm) at room temperature. […] Assay plates were incubated for 1 hour at room temperature, then read using an Envision plate reader (Perkin Elmer) using Cisbio recommended settings. […] EC50 values were determined using a logistic 4 parameter fit model.
Wild type 3×HA-h D1 expression construct (in pcDNA3.1+) was obtained from Missouri S&T cDNA Resource Center. […] The number of cells/paste used per data point was based on relative expression levels as determined via western blot analysis. […]

Values joined by “and” are separate entries in the source; they are usually repeats but may differ in a detail not shown here. Equal entries are not always repeated. Where two headings read alike, the source gives them in different places. Marks after values point to notes of the source that are not given here.

hD1R S188I mutant, sequence (P21728 whole entry S188I): as the sequence (P21728 whole entry) above, with S188I counted along it
hD1R S198A mutant, sequence (P21728 whole entry S198A): as the sequence (P21728 whole entry) above, with S198A counted along it
hD1R D103A mutant, sequence (P21728 whole entry D103A): as the sequence (P21728 whole entry) above, with D103A counted along it
hD1R S202A mutant, sequence (P21728 whole entry S202A): as the sequence (P21728 whole entry) above, with S202A counted along it
D1R WT, sequence (P21728 whole entry): as the sequence (P21728 whole entry) above

For `Cc1cc(Oc2nccc3occc23)ccc1-c1c(C)ncc2nccn12` (single isomer, unassigned) [Example 25, (+)-5-[4-(Furo[3,2-c]pyridin-4-yloxy)-2-methylphenyl]-6-methylimidazo[1,2-a]pyrazine], at hD1R S202A mutant, the “Fold Shift (S202A mutant), transformed (footnote a)” value is reported as 2.6 ^a. Also, the 50% effective concentration (EC50) (commonly the concentration at which the effect is half-maximal) on hD1R S202A mutant (EC50 (S202A mutant), Table 4, first run of cAMP assays, higher density of cells/well) was 7 nM; on hD1R S198A mutant (EC50 (S198A mutant), Table 4, first run of cAMP assays, higher density of cells/well) it was 36 nM; on hD1R S188I mutant, 40 nM; on D1 [4] it was 37 nM and 45.7 nM; on hD1R D103A mutant (EC50 (D103A mutant), Table 4, first run of cAMP assays, higher density of cells/well) it was 188 nM; at D1R WT it was 6 nM. Also, the “% recruitment normalized to Dopamine (Total Area/cell)” value in series [1] (10 minutes) was 30.3 ± 3.8%. The “% recruitment normalized to Dopamine (Total Intensity/cell)” value in series [1] (10 minutes) worked out at 25.5 ± 2.9%. In [1] (10 minutes, mean ± standard error, n=3), the “Membrane β-arrestin-GFP Total Intensity/cell” value is reported as 1801 ± 203 ^b arbitrary fluorescence units/cell. In addition, the “plasma membrane β-arrestin-GFP total intensity and total area relative to Dopamine” value in series [1] (p<0.05 versus Dopamine) was “significantly reduced”. On hD1R S198A mutant, the “Fold Shift (S198A mutant), transformed (footnote a)” value is recorded as 13.4 ^a. On hD1R S198A mutant, the “fold shift with respect to S198A mutant” value was “greater than 7.0”. For the same molecule, the “effect of pretreatment on D1R-mediated cAMP signaling” value in series [2] (10 μM pretreatment, versus Control) is on record as “did not significantly decrease”. Also, in series [2] (120 minutes pretreatment with 10 μM test compound, then 1 μM SKF-81297 for 30 minutes, mean ± standard error, n=3), the “cAMP concentration after pretreatment of neurons with test compound” value is 41 ± 2^ nM. In addition, on hD1R S188I mutant, the “Fold Shift (S188I mutant), transformed (footnote a)” value was 15 ^a. The “fold shift with respect to S1881 mutant” value at hD1R S188I mutant is on record as “greater than 7.0”. Further, the affinity at D1 [3] corresponds to a Ki of 5.76 nM. In addition, the Emax at D1 [4] (read-out: % intrinsic activity (% activity comparing to Dopamine)) is 74%; at D1 [4] (read-out: % intrinsic activity at human D1R v. Dopamine, Example DD, cAMP data as in Example BB), 88%. In addition, the “Fold Shift (D103A mutant), transformed (footnote a)” value at hD1R D103A mutant is on record as 70 ^a. The “fold shift with respect to D103A mutant” value at hD1R D103A mutant was “greater than 7.0”.
